In patent US8071540B2, “Virus derived antimicrobial peptides” (priority 2007, dated 2011):
Where no end group is shown, it is not given here.

Experiments:
Pseudomonas aeruginosa = test: Bacterial lysis (broth dilution) assay, MBC; format: cell-based; parameters: MBC, Psuedomonas aeruginosa, 0 mM NaCl / MBC, Psuedomonas aeruginosa, 150 mM NaCl: unit not given here; conditions: 99.9% killing
Staphylococcus aureus = test: Bacterial lysis (broth dilution) assay, MBC; format: cell-based; conditions: 99.9% killing
Text: The assays for growth inhibition of a microbial target can be used to derive a minimum bactericidal concentration (MBC) value for the peptide, i.e., the concentration of peptide required to kill 99.9% (3-log decrease) of the microbial sample being tested. This value is well known to those in the art as representative of the effectiveness of a particular antimicrobial agent (e.g., an antibiotic) against a particular organism or group of organisms. In assays to detect the MBC of a peptide, growth inhibition of a bacterial population also can be measured with reference to the number of colony forming units (cfu) after exposure to a peptide relative to a control experiment without a peptide.
Bacterial lysis assay. Bacterial lysis assays were conducted in a manner similar to that described previously (Lehrer, R. I., M. E. Selsted, D. Szklarek, and F. J. 1983. Infect. Immun. 42: 10-4, 1983; Miller, M. A., R. F. Garry, J. M. Jaynes, and R. C. Montelaro, AIDS Res Hum Retroviruses 7:511-519, 1991). Bacterial suspensions were cultured in Luria-Bertani Broth to mid-log growth phase and washed by two cycles of centrifugation and suspension in 10 mM phosphate buffer. The Abs600 of the suspension was adjusted with 10 mM phosphate buffer such that, upon dilution, 5-10×10^5 cfu/mL would be treated in the assay. Bacteria were incubated for 1 h with two-fold dilutions of peptides (100 μM to 100 nM) in 96-well plates using 10 mM phosphate buffer, pH 7.2, as a diluent. Ten-fold dilutions of bacteria were performed to 1:1 000; a 100 μl aliquot from each condition was spread on the surface of tryptic soy agar plates (Difco, Detroit, Mich.) which were incubated overnight. Colonies of surviving bacteria (cfu, colony-forming units) were counted and compared to untreated controls to determine the amount of peptide-induced killing under each condition. Log killing is defined as the log of the ratio of cfu present before and after treatment with peptide. The minimal bactericidal concentration, MBC, is the peptide concentration at which 99.9% (three log) killing is achieved (Pearson et al., Antimicrob. Agents Chemother. 18: 699-708, 1980).
Results. Representative gram positive (S. aureus) and gram negative (P. aeruginosa) clinical isolates were used as the index bacteria to survey the peptides described herein.
A limitation of many host-derived antimicrobial peptides is their decreased activity at physiologic (150 mM) NaCl concentration. See Friedrich et al., Antimicrobial Agents and Chemotherapy 43:1542-1548. The peptides WLSA-5 (SEQ ID NO: 3) and LL37 were tested against the two index strains at physiologic NaCl. […] The activity of antimicrobial peptides described herein were compared to an expanded list of clinical bacterial isolates. These are summarized in Table 2 by comparing their MBCs in phosphate buffer alone (low salt) and phosphate buffer containing 150 mM NaCl (physiologic conditions). Inspection of this table would lead one skilled in the art to conclude that the activity of antimicrobial peptides described herein compare favorably to the host derived antimicrobial peptides as it relates to the spectrum and potency of antimicrobial activity.

[1] = test system: Methicillin Resistant S. aureus; format: cell-based, Staphylococcus aureus; parameters: unit not given here; conditions: 99.9% killing
Indonesia H5N1 [2] = format: cell-based, influenza virus; conditions: eleven two-fold serial dilutions from 50 μM, FIG. 24
Indonesia H5N1 [3] = format: in vivo, mice; conditions: peptide added to virus just prior to intranasal dose, FIG. 25
[4] = test system: vaccine strain of B. anthracis; format: cell-based, Bacillus anthracis; conditions: FIG. 26
P. aeruginosa = conditions: intravenous administration; cited from earlier work
[5] = test system: P. aeruginosa and primary human skin fibroblasts; conditions: co-culture; cited from earlier work
C. albicans = test: In vitro fungal killing assay; conditions: 6 μM, RPMI 1640, 37° C.; reference strain SC5314 and all clinical isolates
C. lusitaniae = test: In vitro fungal killing assay; conditions: 6 μM, RPMI 1640, 37° C.; all isolates
[6] = test system: Cryptococcocus neoformans; test: In vitro fungal killing assay; conditions: 3 isolates
Aspergillus fumigatus = test: In vitro fungal killing assay; conditions: 2 isolates
[7] = 0 mM NaCl (10 mM phosphate buffer)

Sequence: RRWVRRVRRVWRRVVRVVRRWVRR [WLBU-2, RRWVRRVRRVWRRVVRVVRRWVRR]
- MBC, Psuedomonas aeruginosa, 0 mM NaCl (Pseudomonas aeruginosa; [7]): 200
- MBC, Psuedomonas aeruginosa, 150 mM NaCl (Pseudomonas aeruginosa; 150 mM NaCl (physiologic)): 100
- MBC, Staphylococcus aureus, 0 mM NaCl (Staphylococcus aureus; [7]): 1 µM
- MBC, Staphylococcus aureus, 150 mM NaCl (Staphylococcus aureus; 150 mM NaCl (physiologic)): 0.6 µM
- MBC, Methicillin Resistant S. aureus, 0 mM NaCl [1, 7]: 200
- MBC, Methicillin Resistant S. aureus, 150 mM NaCl ([1]; 150 mM NaCl (physiologic)): 100
- infectious virus plaque formation (Indonesia H5N1 [2]): dose-dependent decrease in infectious virus plaque formation
- infectivity of virus in mice (Indonesia H5N1 [3]): inactivate the infectivity of virus
- inhibition of vegetative form [4]: inhibit the vegetative form of B. anthracis
- concentration that completely killed 75% of the isolates, C. krusei (C. krusei; RPMI 1640, 37° C.): 3 µM
- concentration that completely killed the remaining isolates, C. krusei (C. krusei; RPMI 1640, 37° C.): 25 µM
- minimum fungicidal concentration (MFC, >99.9% kill), C. krusei (C. krusei; remaining isolates): ≤ 6 µM
- concentration that completely killed 75% of the isolates, C. tropicalis (C. tropicalis; RPMI 1640, 37° C.): 3 µM
- concentration that completely killed the remaining isolates, C. tropicalis (C. tropicalis; RPMI 1640, 37° C.): 25 µM
- minimum fungicidal concentration (MFC, >99.9% kill), C. tropicalis (C. tropicalis; remaining isolates): ≤ 6 µM
- protection in murine model (P. aeruginosa): protection against a lethal challenge of P. aeruginosa
- antibacterial selectivity [5]: highest antibacterial selectivity of all peptides evaluated
- time to fully fungicidal effect, C. albicans (C. albicans): ≤ 5 min
- time to fully fungicidal effect, C. lusitaniae (C. lusitaniae): ≤ 5 min
- concentration that completely killed C. neoformans [6]: 3 µM
- concentration to which A. fumigatus isolates were resistant (Aspergillus fumigatus): > 100 µM
